{
  "source": "patent US11632953B2",
  "about": "“Method for controlling hematophagous or sap-feeding arthropods” (Board of Supervisors of Louisiana State University and …, priority 2016, dated 2023)",
  "key": {"Ae. aegypti": {"system": "Ae. aegypti", "assay": "in vivo diuresis assay", "parameters": "species or system Aedes aegypti", "conditions": "topical, 1.7 μg/mg mosquito", "method": "The K^+-PBS contained the following (in mM): 92.2 NaCl, 47.5 KCl, 10 Na2HPO4, and 2 KH2PO4 (pH 7.5). Each treatment group of 5 mosquitoes was transferred into a separate graduated, packed-cell volume tube (MidSci, St. Louis, Mo.) and held for 1 h at 28° C. The volume excreted by the mosquitoes was measured visually via the graduated column at the bottom of the tube. At least 8 replicates (5 mosquitoes per replicate) were performed for each treatment."}, "mosquitoes": {"system": "mosquitoes", "assay": "topical toxicity to mosquitoes (species not specified)", "type": "in vivo", "conditions": "dose of 10 μg per mg; within 24 h"}, "[1]": {"system": "isolated tick salivary gland", "assay": "ion secretion in saliva of the isolated tick salivary gland", "parameters": "species or system Amblyomma americanum"}, "Kir6.2/SUR1": {"molecular_target": "Kir6.2/SUR1 (Homo sapiens (Human), UniProt Q09428+Q14654)", "sequence (Q14654 whole entry)": "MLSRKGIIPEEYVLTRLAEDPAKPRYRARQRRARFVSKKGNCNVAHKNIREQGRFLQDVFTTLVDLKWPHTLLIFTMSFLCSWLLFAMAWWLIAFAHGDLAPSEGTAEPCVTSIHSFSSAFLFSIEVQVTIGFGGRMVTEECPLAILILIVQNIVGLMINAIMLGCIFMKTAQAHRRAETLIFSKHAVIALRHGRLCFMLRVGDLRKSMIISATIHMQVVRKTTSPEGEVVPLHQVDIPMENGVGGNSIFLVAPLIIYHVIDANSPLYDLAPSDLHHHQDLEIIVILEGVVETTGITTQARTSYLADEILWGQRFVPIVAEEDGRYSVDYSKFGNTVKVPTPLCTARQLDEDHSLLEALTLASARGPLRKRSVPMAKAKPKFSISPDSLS", "sequence (Q09428 whole entry)": "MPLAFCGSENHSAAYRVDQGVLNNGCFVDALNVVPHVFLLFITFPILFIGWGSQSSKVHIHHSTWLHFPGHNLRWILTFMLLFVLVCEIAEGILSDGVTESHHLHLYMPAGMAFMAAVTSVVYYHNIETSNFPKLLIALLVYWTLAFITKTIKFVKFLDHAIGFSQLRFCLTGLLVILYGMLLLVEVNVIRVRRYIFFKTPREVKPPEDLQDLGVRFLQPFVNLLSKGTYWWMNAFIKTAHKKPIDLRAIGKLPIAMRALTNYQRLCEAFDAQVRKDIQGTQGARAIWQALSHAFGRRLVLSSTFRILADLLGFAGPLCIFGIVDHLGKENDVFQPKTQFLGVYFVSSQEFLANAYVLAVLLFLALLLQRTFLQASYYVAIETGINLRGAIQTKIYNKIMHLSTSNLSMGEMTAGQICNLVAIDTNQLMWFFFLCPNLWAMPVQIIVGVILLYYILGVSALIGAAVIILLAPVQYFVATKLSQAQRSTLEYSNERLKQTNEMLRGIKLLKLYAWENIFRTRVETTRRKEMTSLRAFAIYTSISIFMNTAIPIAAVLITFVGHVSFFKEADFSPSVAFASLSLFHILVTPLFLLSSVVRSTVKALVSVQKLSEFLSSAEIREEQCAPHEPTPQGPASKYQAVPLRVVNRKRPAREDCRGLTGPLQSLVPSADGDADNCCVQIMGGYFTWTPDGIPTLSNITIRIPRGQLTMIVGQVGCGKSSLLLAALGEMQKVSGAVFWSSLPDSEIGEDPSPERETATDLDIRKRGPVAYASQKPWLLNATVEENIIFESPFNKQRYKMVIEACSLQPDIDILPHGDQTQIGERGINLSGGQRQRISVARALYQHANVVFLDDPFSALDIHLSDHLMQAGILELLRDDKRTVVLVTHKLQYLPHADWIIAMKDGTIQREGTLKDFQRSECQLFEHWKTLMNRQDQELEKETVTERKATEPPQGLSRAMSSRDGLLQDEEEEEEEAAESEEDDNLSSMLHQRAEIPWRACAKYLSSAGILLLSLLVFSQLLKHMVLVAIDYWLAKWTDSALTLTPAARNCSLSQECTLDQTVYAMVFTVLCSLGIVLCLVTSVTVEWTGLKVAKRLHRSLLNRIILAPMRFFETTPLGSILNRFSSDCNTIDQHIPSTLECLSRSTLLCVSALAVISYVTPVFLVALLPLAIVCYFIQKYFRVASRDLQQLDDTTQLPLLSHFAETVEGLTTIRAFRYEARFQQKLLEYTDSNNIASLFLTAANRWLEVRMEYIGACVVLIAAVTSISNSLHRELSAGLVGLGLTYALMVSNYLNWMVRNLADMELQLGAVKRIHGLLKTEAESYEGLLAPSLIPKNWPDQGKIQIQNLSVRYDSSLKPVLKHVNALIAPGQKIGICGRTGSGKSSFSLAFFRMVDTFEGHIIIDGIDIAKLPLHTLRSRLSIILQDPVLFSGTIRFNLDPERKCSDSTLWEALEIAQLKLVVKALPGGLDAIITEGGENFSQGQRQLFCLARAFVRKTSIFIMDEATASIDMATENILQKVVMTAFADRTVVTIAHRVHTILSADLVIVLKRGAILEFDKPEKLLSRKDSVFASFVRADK", "assay": "thallium (Tl+) flux assay", "type": "cell-based, mammalian", "method": "(§1) The thallium flux assay is an in vitro method of measuring conductance through a potassium ion channel. Potassium channels are also permeable to thallium ions. The modulation of a K^+ channel will thus increase or decrease thallium ion flow through the channel and thus, alter the observed fluorescence of a thallium-specific indicator dye.\n(§2) Stably transfected T-Rex-HEK-293-AnKir1 cells were cultured overnight in 384-well plates in media containing DMEM, 10% dialyzed FBS, and 1 μg/mL tetracycline to induce channel expression. The next day the cell culture medium was replaced with a dye-loading solution containing assay buffer (Hanks Balanced Salt Solution with 20 mM HEPES, pH 7.3), 0.01% (w/v) Pluronic F-127 (Life Technologies, Carlsbad, Calif.), and 1.2 μM of the thallium-sensitive dye Thallos-AM (TEFlabs, Austin, Tex.). After 1 hr incubation at room temperature, the dye-loading solution was washed from the plates and replaced with 20 μL/well of assay buffer. […] To ensure the small-molecule vehicle DMSO had no direct effect on AnKir1-dependent Tl^+ flux, the assay's tolerance to different doses of DMSO was evaluated. The robustness and reproducibility of the assay was determined by comparing Tl^+ flux through tetracycline-induced and tetracycline-free cells. The Z′ value was calculated as:\n(§3) Z′=1−(3SDp+3SDn)/|meanp+meann| where SD is standard deviation, and p and n are control and uninduced flux values, respectively. […] Half-inhibition concentration (IC50) values were calculated from fits using a four parameter logistic equation. […]\n(§4) Tl^+ flux data were analyzed using Excel (Microsoft Corp, Redmond, Wash.) with XLfit add-in (IDBS, Guildford, Surrey, UK), OriginPro (Origin Lab, Northampton, Mass.), and GraphPad Prism (GraphPad Software, San Diego, Calif., USA) software. […] The slope of the fluorescence increase beginning 5 s after Tl^+ addition and ending 15 s after Tl^+ addition was calculated."}, "Kir4.1": {"molecular_target": "Kir4.1 (Homo sapiens (Human), UniProt P78508)", "sequence (P78508 whole entry)": "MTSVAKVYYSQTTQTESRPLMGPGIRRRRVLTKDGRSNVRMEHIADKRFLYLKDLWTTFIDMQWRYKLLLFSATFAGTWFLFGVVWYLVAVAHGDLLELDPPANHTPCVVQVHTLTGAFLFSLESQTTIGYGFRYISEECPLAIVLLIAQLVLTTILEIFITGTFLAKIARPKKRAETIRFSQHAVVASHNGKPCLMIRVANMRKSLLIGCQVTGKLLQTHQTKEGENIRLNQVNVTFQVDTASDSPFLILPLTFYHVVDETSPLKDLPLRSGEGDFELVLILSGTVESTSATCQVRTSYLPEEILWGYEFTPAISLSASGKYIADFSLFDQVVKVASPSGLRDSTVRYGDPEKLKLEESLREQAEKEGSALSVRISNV", "assay": "thallium (Tl+) flux assay", "type": "cell-based, mammalian", "conditions": "means (n = 3); read-out: IC50 μM (95% Cl)", "method": "as §1, §2, §3, §4"}, "hKir2.1": {"molecular_target": "hKir2.1 (Homo sapiens (Human), UniProt P63252)", "sequence (P63252 whole entry)": "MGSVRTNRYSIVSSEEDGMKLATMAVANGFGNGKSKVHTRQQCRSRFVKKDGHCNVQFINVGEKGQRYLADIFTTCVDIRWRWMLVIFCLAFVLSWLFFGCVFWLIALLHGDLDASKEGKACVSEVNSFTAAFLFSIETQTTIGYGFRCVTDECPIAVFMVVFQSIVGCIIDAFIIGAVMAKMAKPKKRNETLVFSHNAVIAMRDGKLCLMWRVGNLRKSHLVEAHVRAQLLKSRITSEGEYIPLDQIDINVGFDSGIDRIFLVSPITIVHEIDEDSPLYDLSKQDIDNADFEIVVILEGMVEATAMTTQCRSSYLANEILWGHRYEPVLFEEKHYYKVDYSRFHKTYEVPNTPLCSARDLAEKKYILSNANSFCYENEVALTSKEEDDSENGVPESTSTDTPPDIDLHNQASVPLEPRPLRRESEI", "assay": "thallium (Tl+) flux assay", "type": "cell-based"}, "[2]": {"system": "honey bees (Apis mellifera)", "assay": "acute topical toxicity in adult honey bees", "type": "in vivo", "conditions": "48 h, VU041 1 mg/bee (~10 μg/mg), bifenthrin 0.1 μg/bee", "method": "Frames of late-stage honeybee (A. mellifera) pupae were taken from four colonies at The Ohio State University Honey Bee Lab in Wooster, Ohio, and maintained in a dark humid incubator at 34° C. (Darwin Chambers Co., St. Louis, Mo., model H024) until adult bees emerged. New adults were brushed from frames daily, placed in wooden screen cages (21×14×12 cm), and provided with 1:1 (w/w) sucrose in water.\nAcute toxicity experiments in adult bees were performed as follows: Twenty-four hours after emergence, adult honey bees in cages were anaesthetized with carbon dioxide, divided into groups of approximately 20 bees each, and placed in plastic-coated paper cups (177 cm^3; UNIQ Paper Yogurt Cup, Frozen Dessert Supplies, Gilbert, Ariz.) covered with cotton cheesecloth. […] As a positive control, some bees were treated with 3 μl of bifenthrin (0.1 μg/μl). Negative control bees were treated with 3 μl of solvent. Applications were made using a 20 μl micropipette (Fisherbrand Finnpipette F2, Fisher Scientific, Pittsburgh, Pa.) with a disposable plastic tip. […] Toxicity to honey bees was recorded at 48 h, rather than the 24 h used for mosquitoes, to allow for the possibility of delayed toxicity due to the larger body size of the bee. Bees showing no movement 48 h after treatment were scored as dead."}, "Kir7.1": {"molecular_target": "Kir7.1 (Homo sapiens (Human), UniProt O60928)", "sequence (O60928 whole entry)": "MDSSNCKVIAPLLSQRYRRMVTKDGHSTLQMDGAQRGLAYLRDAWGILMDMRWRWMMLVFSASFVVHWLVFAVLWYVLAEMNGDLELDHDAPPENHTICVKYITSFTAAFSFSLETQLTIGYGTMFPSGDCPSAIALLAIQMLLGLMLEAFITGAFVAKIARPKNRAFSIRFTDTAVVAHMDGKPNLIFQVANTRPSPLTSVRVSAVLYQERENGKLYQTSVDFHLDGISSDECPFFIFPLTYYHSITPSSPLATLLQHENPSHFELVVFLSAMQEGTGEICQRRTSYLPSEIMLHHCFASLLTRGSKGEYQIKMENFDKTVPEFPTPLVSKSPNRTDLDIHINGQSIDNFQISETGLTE", "assay": "thallium (Tl+) flux assay", "type": "cell-based, mammalian"}, "[3]": {"system": "isolated tick salivary gland", "assay": "fluid secretion (salivation) in the isolated tick salivary gland, modified Ramsay assay", "parameters": "species or system Amblyomma americanum", "conditions": "isolated tick salivary gland"}, "[4]": {"conditions": "means (n = 3), read-out: IC50 μM (95% Cl)"}},
  "note": "“Also recorded” adds a separate entry of the source. Where two headings read alike, the source gives them in different places.",
  "data": [
    {"smiles": "O=C(Cn1nc(C(F)(F)F)c2c1CCCC2)N1CCCc2ccccc21", "note": "[VU041, 1-(3,4-dihydroquinolin-1(2H)-yl)-2-(3-(trifluoromethyl)-4,5,6,7-tetrahydro-1H-indazol-1-yl)ethan-1-one]", "values": [
      {"measurement": "lowering of diuretic capacity compared to controls", "setting": "Ae. aegypti", "value": "~51", "unit": "%"},
      {"measurement": "lethality against mosquitoes", "setting": "mosquitoes", "value": "~100", "unit": "%"},
      {"measurement": "K+ and Na+ ion secretion rates in salivary droplets", "setting": "[1]", "value": "significantly reduced"},
      {"measurement": "inhibition at 30 µM", "setting": "Kir6.2/SUR1; concentration of 30 μM", "value": "< 10", "unit": "%"},
      {"measurement": "IC50", "setting": "Kir6.2/SUR1; [4]", "value": "> 30", "unit": "µM"},
      {"measurement": "IC50", "setting": "Kir4.1", "value": "> 30", "unit": "µM"},
      {"measurement": "IC50", "setting": "hKir2.1; SAR libraries, read-out: hKir2.1 IC50", "value": 11.3, "unit": "µM"},
      {"measurement": "IC50", "setting": "hKir2.1; means (n = 3), selectivity panel, read-out: IC50 μM (95% Cl)", "value": 12.7, "unit": "µM"},
      {"measurement": "mortality of adult honey bees", "setting": "[2]", "value": "did not cause significant mortality; also recorded: not toxic"},
      {"measurement": "inhibition at 30 µM", "setting": "Kir7.1; concentration of 30 μM", "value": "< 10", "unit": "%"},
      {"measurement": "IC50", "setting": "Kir7.1; [4]", "value": "> 30", "unit": "µM"},
      {"measurement": "reduction of salivary output / saliva secretion compared to control", "setting": "[3]", "value": "approximately 60%"}
    ]}
  ]
}
